Results from the supplement of paper PMC4862054.

What was measured:
Assay in all cases: normalised viability (% of control), CellTiter-Blue; higher = more viable cells (about 100 = DMSO control)
Conditions in all cases: incubation time: 72 h
DU-4475 [1] = system: DU-4475
Method: (§1)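 DSRT, CellTiter-Blue viability, 72 h incubation. Signal is normalised to DMSO and benzethonium chloride controls. Value is the normalised response at dose 9.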

CAL-85-1 [2] = system: CAL-85-1
Method: as §1

CAL-51 [3] = system: CAL-51
Method: as §1

HDQ-P1 [4] = system: HDQ-P1
Method: as §1

MDA-MB-453 [5] = system: MDA-MB-453
Method: as §1

CAL-148 [6] = system: CAL-148
Method: as §1

DU-4475 [7] = system: DU-4475; remark: listed apart in the source
Method: (§2)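 DSRT, CellTiter-Blue viability, 72 h incubation. Signal is normalised to DMSO and benzethonium chloride controls. Value is the normalised response at dose 8.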

CAL-85-1 [8] = system: CAL-85-1; remark: listed apart in the source
Method: as §2

CAL-51 [9] = system: CAL-51; remark: listed apart in the source
Method: as §2

HDQ-P1 [10] = system: HDQ-P1; remark: listed apart in the source
Method: as §2

MDA-MB-453 [11] = system: MDA-MB-453; remark: listed apart in the source
Method: as §2

CAL-148 [12] = system: CAL-148; remark: listed apart in the source
Method: as §2

Row | Compound | normalised viability (DU-4475 [1]) | normalised viability (CAL-85-1 [2]) | normalised viability (CAL-51 [3]) | normalised viability (HDQ-P1 [4]) | normalised viability (MDA-MB-453 [5]) | normalised viability (CAL-148 [6]) | normalised viability (DU-4475 [7]) | normalised viability (CAL-85-1 [8]) | normalised viability (CAL-51 [9]) | normalised viability (HDQ-P1 [10]) | normalised viability (MDA-MB-453 [11]) | normalised viability (CAL-148 [12])
1 | Cc1cccc(-c2nn3c(c2-c2ccnc4ccc(C(N)=O)cc24)CCC3)n1 (1000 nM) | 124% | 101% | 103% | 133% | 104% | 79.7% |  |  |  |  |  | 
2 | Cn1cc(CNCC2CCN(c3ncc(C(=O)NO)cn3)CC2)c2ccccc21 (1000 nM) | 3.03% | 3.26% | 2.6% | 18.9% | 2.12% | 0.7% |  |  |  |  |  | 
3 | O=C(NC[C@H](O)CO)c1ccncc1Nc1ccc(I)cc1F (10000 nM) | -0.44% | 39.9% | 65% | 46.3% | 37.1% | 70.5% |  |  |  |  |  | 
4 | Nc1nc(=O)c2c([nH]1)NCC(CNc1ccc(C(=O)N[C@@H](CCC(=O)O)C(=O)O)cc1)N2C=O (mixture of isomers) [Folinic acid] (990 nM) | 115% | 98% | 94.1% | 86.9% | 103% | 105% |  |  |  |  |  | 
5 | O=C(Nc1c[nH]nc1-c1nc2ccc(CN3CCOCC3)cc2[nH]1)NC1CC1 [AT9283] (10000 nM) | -1.62% | -0.09% | 4.48% | 7.44% | 11.2% | 1.55% |  |  |  |  |  | 
6 | O=S(=O)(c1cccc2cnccc12)N1CCCNCC1 [Fasudil] (10000 nM) | 101% | 99.3% | 109% | 180% | 57.8% | 82.3% |  |  |  |  |  | 
7 | CS(=O)(=O)N1CCN(Cc2cc3nc(-c4cccc5[nH]ncc45)nc(N4CCOCC4)c3s2)CC1 [GDC-0941] (10000 nM) | -0.76% | 13.3% | 2.35% | 12.8% | 5.58% | 0.59% |  |  |  |  |  | 
8 | c1cc(CN2CCCNCCNCCCNCC2)ccc1CN1CCCNCCNCCCNCC1 [Plerixafor] (2500 nM) | 99.3% | 97% | 111% | 125% | 103% | 83.5% |  |  |  |  |  | 
9 | CC[C@@]1(O)C(=O)OCc2c1cc1n(c2=O)Cc2cc3c(CN(C)C)c(O)ccc3nc2-1 [Topotecan] (300 nM) |  |  |  |  |  |  | 47.5% | 66.9% | 66.2% | 87.8% | 69.3% | 31.4%
